# Test results published in ChEMBL document CHEMBL4145553, “Design, synthesis, and biological evaluation of novel amide and hydrazide based thioether analogs targeting Histone deacteylase (HDAC) enzymes” (Eur J Med Chem, 2018).
# Calls of active or inactive are those of the source. The calls are words filed in the database; no cut-off is given here.
# Assays:
# [1] = test system: HL-60; assay: Induction of apoptosis in human HL60 cells assessed as live cells by propidium iodide/Annexin V staining based flow cytometry (reference value: 96.94%); assay type: functional
# [2] = test system: OVCAR-3; assay: Growth inhibition of human OVCAR3 cells incubated for 48 hrs by sulforhodamine B assay; assay type: functional; settings: OVCAR-3, 48 h
# [3] = test system: HT-29; assay: Growth inhibition of human HT-29 cells assessed as cell growth at 10^-8 M incubated for 48 hrs by sulforhodamine B assay relative to control; assay type: functional; settings: HT-29, 48 h, read-out: Activity
# [4] = test system: HL-60; assay: Downregulation of HDAC3 mRNA expression in human HL60 cells by qRT-PCR method; assay type: functional, cell-based
# [5] = test system: SK-MEL-5; assay: Growth inhibition of human SK-MEL-5 cells assessed as cell growth at 10^-5 M incubated for 48 hrs by sulforhodamine B assay relative to control; assay type: functional; settings: SK-MEL-5, 48 h, read-out: Activity
# [6] = test system: NCI-H460; assay: Growth inhibition of human NCI-H460 cells assessed as cell growth at 10^-5 M incubated for 48 hrs by sulforhodamine B assay relative to control; assay type: functional; settings: NCI-H460, 48 h, read-out: Activity
# [7] = test system: RPMI-8226; assay: Growth inhibition of human RPMI8226 cells assessed as cell growth at 10^-7 M incubated for 48 hrs by sulforhodamine B assay relative to control; assay type: functional; settings: RPMI-8226, 48 h, read-out: Activity
# [8] = test system: A498; assay: Growth inhibition of human A498 cells assessed as cell growth at 10^-6 M incubated for 48 hrs by sulforhodamine B assay relative to control; assay type: functional; settings: A498, 48 h, read-out: Activity
# [9] = test system: UO-31; assay: Growth inhibition of human UO31 cells assessed as cell growth at 10^-4 M incubated for 48 hrs by sulforhodamine B assay relative to control; assay type: functional; settings: UO-31, 48 h, read-out: Activity
# [10] = test system: BT-549; assay: Growth inhibition of human BT549 cells assessed as cell growth at 10^-5 M incubated for 48 hrs by sulforhodamine B assay relative to control; assay type: functional; settings: BT-549, 48 h, read-out: Activity
# [11] = test system: MDA-MB-468; assay: Growth inhibition of human MDA-MB-468 cells assessed as cell growth at 10^-6 M incubated for 48 hrs by sulforhodamine B assay relative to control; assay type: functional; settings: MDA-MB-468, 48 h, read-out: Activity
# [12] = test system: HL-60; assay: Downregulation of HDAC8 mRNA expression in human HL60 cells by qRT-PCR method; assay type: functional, cell-based
# [13] = test system: MDA-MB-435; assay: Growth inhibition of human MDA-MB-435 cells assessed as cell growth at 10^-5 M incubated for 48 hrs by sulforhodamine B assay relative to control; assay type: functional; settings: MDA-MB-435, 48 h, read-out: Activity
# [14] = test system: A498; assay: Growth inhibition of human A498 cells incubated for 48 hrs by sulforhodamine B assay; assay type: functional; settings: A498, 48 h
# [15] = test system: CAKI-1; assay: Growth inhibition of human Caki1 cells assessed as cell growth at 10^-5 M incubated for 48 hrs by sulforhodamine B assay relative to control; assay type: functional; settings: CAKI-1, 48 h, read-out: Activity
# [16] = test system: SW-620; assay: Growth inhibition of human SW620 cells assessed as cell growth at 10^-4 M incubated for 48 hrs by sulforhodamine B assay relative to control; assay type: functional; settings: SW-620, 48 h, read-out: Activity
# [17] = test system: MDA-MB-435; assay: Induction of apoptosis in human MDA-MB-435 cells assessed as necrotic cells by propidium iodide/Annexin V staining based flow cytometry (reference value: 0.24%); assay type: functional
# [18] = test system: Malme-3M; assay: Growth inhibition of human MALME-3M cells assessed as cell growth at 10^-6 M incubated for 48 hrs by sulforhodamine B assay relative to control; assay type: functional; settings: read-out: Activity
# [19] = test system: HL-60; assay: Cell cycle arrest in human HL60 cells assessed as accumulation at G2-phase by propidium iodide staining based flow cytometry (reference value: 6.58%); assay type: functional
# [20] = test system: UO-31; assay: Growth inhibition of human UO31 cells assessed as cell growth at 10^-6 M incubated for 48 hrs by sulforhodamine B assay relative to control; assay type: functional; settings: UO-31, 48 h, read-out: Activity
# [21] = test system: LOX IMVI; assay: Growth inhibition of human LOXIMVI cells assessed as cell growth at 10^-4 M incubated for 48 hrs by sulforhodamine B assay relative to control; assay type: functional; settings: read-out: Activity
# [22] = test system: MDA-MB-435; assay: Cell cycle arrest in human MDA-MB-435 cells assessed as accumulation at G2-phase by propidium iodide staining based flow cytometry (reference value: 3.68%); assay type: functional
# [23] = test system: COLO 205; assay: Growth inhibition of human COLO205 cells assessed as cell growth at 10^-8 M incubated for 48 hrs by sulforhodamine B assay relative to control; assay type: functional; settings: COLO 205, 48 h, read-out: Activity
# [24] = test system: HCT-15; assay: Growth inhibition of human HCT15 cells assessed as cell growth at 10^-8 M incubated for 48 hrs by sulforhodamine B assay relative to control; assay type: functional; settings: HCT-15, 48 h, read-out: Activity
# [25] = test system: SK-MEL-28; assay: Growth inhibition of human SK-MEL-28 cells assessed as cell growth at 10^-4 M incubated for 48 hrs by sulforhodamine B assay relative to control; assay type: functional; settings: SK-MEL-28, 48 h, read-out: Activity
# [26] = test system: MDA-MB-435; assay: Downregulation of HDAC1 mRNA expression in human MDA-MB-435 cells by qRT-PCR method; assay type: functional, cell-based
# [27] = test system: NCI-H522; assay: Growth inhibition of human NCI-H522 cells assessed as cell growth at 10^-6 M incubated for 48 hrs by sulforhodamine B assay relative to control; assay type: functional; settings: NCI-H522, 48 h, read-out: Activity
# [28] = test system: HT-29; assay: Growth inhibition of human HT-29 cells incubated for 48 hrs by sulforhodamine B assay; assay type: functional; settings: HT-29, 48 h
# [29] = test system: K562; assay: Growth inhibition of human K562 cells assessed as cell growth at 10^-4 M incubated for 48 hrs by sulforhodamine B assay relative to control; assay type: functional; settings: K562, 48 h, read-out: Activity
# [30] = test system: HOP-62; assay: Growth inhibition of human HOP62 cells assessed as cell growth at 10^-4 M incubated for 48 hrs by sulforhodamine B assay relative to control; assay type: functional; settings: HOP-62, 48 h, read-out: Activity
# [31] = test system: RXF 393; assay: Growth inhibition of human RXF393 cells assessed as cell growth at 10^-8 M incubated for 48 hrs by sulforhodamine B assay relative to control; assay type: functional; settings: RXF 393, 48 h, read-out: Activity
# [32] = test system: OVCAR-5; assay: Growth inhibition of human OVCAR5 cells assessed as cell growth at 10^-4 M incubated for 48 hrs by sulforhodamine B assay relative to control; assay type: functional; settings: OVCAR-5, 48 h, read-out: Activity
# [33] = read-out: LC50 (the source's name)
# [34] = read-out: pLC50 (the source's name) (converted)
compound,measurement,setting,value
CCS/C(Nc1ccccc1)=C(\C#N)C(=O)Nc1ccc(OC)cc1,Activity,[1],84%
same,GI50,[2]; read-out: GI50,2.61 µM
same,CC50,[2]; [33],> 100 µM
same,TGI,[2]; read-out: TGI,8.59 µM
same,GI50,[2]; read-out: pGI50 (converted),2.63 µM
same,CC50,[2]; [34],> 100 µM
same,TGI,[2]; read-out: pTGI (converted),8.51 µM
same,growth at 0.01 µM,[3],109%
same,Activity,[4],Active
same,growth at 10 µM,[5],-8%
same,growth at 10 µM,[6],10%
same,growth at 0.1 µM,[7],89%
same,growth at 1 µM,[8],78%
same,growth at 100 µM,[9],16%
same,growth at 10 µM,[10],21%
same,growth at 1 µM,[11],60%
same,Activity,[12],Active
same,growth at 10 µM,[13],-49%
same,GI50,[14]; read-out: GI50,2.54 µM
same,CC50,[14]; [33],> 100 µM
same,TGI,[14]; read-out: TGI,26.6 µM
same,GI50,[14]; read-out: pGI50 (converted),2.57 µM
same,CC50,[14]; [34],> 100 µM
same,TGI,[14]; read-out: pTGI (converted),26.9 µM
same,growth at 10 µM,[15],29%
same,growth at 100 µM,[16],14%
same,Activity,[17],1.63%
same,growth at 1 µM,[18],79%
same,Activity,[19],16.32%
same,growth at 1 µM,[20],87%
same,growth at 100 µM,[21],12%
same,Activity,[22],16.44%
same,growth at 0.01 µM,[23],111%
same,growth at 0.01 µM,[24],98%
same,growth at 100 µM,[25],37%
same,Activity,[26],Active
same,growth at 1 µM,[27],77%
same,GI50,[28]; read-out: GI50,3.47 µM
same,CC50,[28]; [33],> 100 µM
same,TGI,[28]; read-out: TGI,33.3 µM
same,GI50,[28]; read-out: pGI50 (converted),3.47 µM
same,CC50,[28]; [34],> 100 µM
same,TGI,[28]; read-out: pTGI (converted),33.1 µM
same,growth at 100 µM,[29],10%
same,growth at 100 µM,[30],37%
same,growth at 0.01 µM,[31],106%
same,growth at 100 µM,[32],23%
CCS/C(Nc1ccccc1)=C(\C#N)C(=O)N/N=C\c1ccc(Cl)cc1Cl,Activity,[1],79.88%
same,GI50,[2]; read-out: GI50,2.8 µM
same,CC50,[2]; [33],> 100 µM
same,TGI,[2]; read-out: TGI,10.8 µM
same,GI50,[2]; read-out: pGI50 (converted),2.82 µM
same,CC50,[2]; [34],> 100 µM
same,TGI,[2]; read-out: pTGI (converted),10.7 µM
same,growth at 0.01 µM,[3],105%
same,Activity,[4],Active
same,growth at 10 µM,[5],-6%
same,growth at 10 µM,[6],9%
same,growth at 0.1 µM,[7],94%
same,growth at 1 µM,[8],68%
same,growth at 100 µM,[9],41%
same,growth at 10 µM,[10],18%
same,growth at 1 µM,[11],88%
same,Activity,[12],Active
same,growth at 10 µM,[13],-53%
same,GI50,[14]; read-out: GI50,1.87 µM
same,CC50,[14]; [33],> 100 µM
same,TGI,[14]; read-out: TGI,37.8 µM
same,GI50,[14]; read-out: pGI50 (converted),1.86 µM
same,CC50,[14]; [34],> 100 µM
same,TGI,[14]; read-out: pTGI (converted),38 µM
same,growth at 10 µM,[15],23%
same,growth at 100 µM,[16],25%
same,Activity,[17],0.89%
same,growth at 1 µM,[18],79%
same,Activity,[19],22.18%
same,growth at 1 µM,[20],86%
same,growth at 100 µM,[21],22%
same,Activity,[22],12.4%
same,growth at 0.01 µM,[23],101%
same,growth at 0.01 µM,[24],99%
same,growth at 100 µM,[25],45%
same,Activity,[26],Active
same,growth at 1 µM,[27],68%
same,GI50,[28]; read-out: GI50,3.7 µM
same,CC50,[28]; [33],> 100 µM
same,TGI,[28]; read-out: TGI,> 100 µM
same,GI50,[28]; read-out: pGI50 (converted),3.72 µM
same,CC50,[28]; [34],> 100 µM
same,TGI,[28]; read-out: pTGI (converted),> 100 µM
same,growth at 100 µM,[29],7%
same,growth at 100 µM,[30],8%
same,growth at 0.01 µM,[31],93%
same,growth at 100 µM,[32],38%
